Consider two compounds from patent publication US20100111859A1, “Visualization of Biological Material by the Use of Coated Contrast Agents” (priority 2007, published 2010).

The nature of the data set: MRI measurements of relaxation rates and relaxivities. The conditions noted are these: for r1: relaxivity, MRI measurement. Format: physicochemical. An excerpt: MRI measurements: See Engström et al., Magn Reson Mater Phy, 19 (2006) 180-186.
Commercially available and clinically used Gd^3+-DPTA has under the same conditions lower values for 1/T1 and 1/T2 (e.g. 1/T1=0.005 ms^−1). Variations in relaxivities (r1 and r2) and in the relaxivity ratio (r2/r1) are illustrated by: […]

`[Cl][Gd]([Cl])[Cl]` [Gd^3+ (GDCl3)] showed a r1 of 10.5 mM⁻¹ s⁻¹.

The compound `O=C([O-])CN(CCN(CC(=O)[O-])CC(=O)O)CCN(CC(=O)[O-])CC(=O)O.[Gd+3]` [Gd^3+-DTPA] yielded a r1 of 4.1 mM⁻¹ s⁻¹. For the same compound, for the setting “relaxation rate at 1 mM Gd”, the “1/T1 (1 mM)” value is given as 0.005 ms^−1. For the same compound, the 1/T2 result (relaxation rate, result in words) was “lower”.
